Values joined by “and” are separate entries in the source; they are usually repeats but may differ in a detail not shown here. Equal values may be shown once.

Here are results for six compounds from publication PMC8519103 (Chemmedchem, 2021).

In the first test the test system is M. bovis BCG. Kind of test: microbe, parasite or virus in culture.
Details: not given
The test is classed as cell-based, Mycobacterium bovis DSM-43990 (BCGT).
Regarding `C=CC(c1ccc(-c2ccc(OC)c(OC)c2)cc1)n1ccnc1` (stereo not drawn) [Compound S3, 1‐(1‐(3’,4’‐dimethoxy‐[1,1’‐biphenyl]‐4‐yl)allyl)‐1H‐imidazole], the “MIC50 relative to KD (MIC50 = x × KD)” value is reported as > 2.

Turning to `C=CC(c1ccc(-c2ccc(OC)c(C)c2)cc1)n1ccnc1` (stereo not drawn) [Compound S4, 1‐(1‐(4’‐methoxy‐3’‐methyl‐[1,1’‐biphenyl]‐4‐yl)allyl)‐1H‐imidazole], the “MIC50 relative to KD (MIC50 = x × KD)” value is recorded as > 2. On to `C=CC(c1ccc(-c2ccc3c(c2)OCO3)cc1)n1ccnc1` (stereo not drawn) [Compound S5, 1‐(1‐(4‐(benzo[d][1,3]dioxol‐5‐yl)phenyl)allyl)‐1H‐imidazole], for which the “MIC50 relative to KD (MIC50 = x × KD)” value is recorded as > 2. Turning to `C=CC(c1ccc(-c2ccc3c(c2)OCO3)cc1F)n1ccnc1` (stereo not drawn) [Compound S8], the “MIC50 relative to KD (MIC50 = x × KD)” value is on record as > 2. Take `C=CC(c1ccc(-c2ccc3[nH]ccc3c2)cc1)n1ccnc1` (stereo not drawn) [Compound S10, 5‐(4‐(1‐(1H‐imidazol‐1‐yl)allyl)phenyl)‐1H‐indole]: the “MIC50 relative to KD (MIC50 = x × KD)” value was > 2.

Still in this test, the particulars now being: Mycobacterium tuberculosis variant bovis BCG, BCG, read-out: MIC50.
`Clc1ccc(COC(Cn2ccnc2)c2ccc(Cl)cc2Cl)cc1` (stereo not drawn) [Econazole, reference compound]: the IC50 was 2.6 µg/mL and 12.7 µM.
